{"source": "patent US20220401390A1", "about": "“TREATMENTS OF DIABETIC MACULAR EDEMA AND IMPAIRED VISUAL ACUITY” (KALVISTA PHARMACEUTICALS LIMITED, priority 2019, published 2022)", "format_in_all_cases": "in vivo, human", "key": {"[1]": {"test_system": "subjects with ciDME who have had prior anti-VEGF treatment", "experiment": "Study 2: local and systemic safety and tolerability", "source_text": "To evaluate the local and systemic safety and tolerability of monthly dosing of the injections of the compound of Formula A in subjects with ciDME who had had prior anti-VEGF treatment.\nThis study was a randomized, sham-controlled, double-masked, 3-arm study into efficacy, safety and tolerability of monthly intravitreal injections of the compound of Formula A as a monotherapy in adult subjects with ciDME. The subjects had all had prior anti-VEGF treatment.\nThe 129 eligible subjects were randomized approximately 1:1:1 into three arms: • 1. Arm 1, N=44: • Received injections of 3 μg/eye (100 μL injection volume at a concentration of 30 μg/mL) of the compound of formula A; • 2. Arm 2, N=41: • Received injections of 6 μg/eye (100 μL injection volume at a concentration of 60 μg/mL) of the compound of formula A; and • 3. Arm 3, N=44: • Received a sham procedure; during a 12-week, double-masked treatment period (a total of 4 doses given at approximately monthly intervals).\nApproximately twenty-four (24) hours after each study drug administration or sham procedure on Day 1 and Weeks 4, 8, and 12, subjects were contacted by telephone to evaluate any reported AEs and changes in concomitant medications. In the event of any reported ocular or systemic AEs that were considered by the Investigator to be a possible cause for concern, the subjects returned to the clinic for assessment as soon as possible. • 3. Follow up Phase:\nSafety variables of interest in this study are: • AEs; • Ophthalmic and physical findings; • Laboratory test results (clinical chemistry, hematology, and urinalysis); • Vital signs (SBP, DBP, PR, and respiratory rate)."}, "[2]": {"experiment": "Study 1: plasma profile following intravitreal injection", "source_text": "The secondary objectives were: • To evaluate the plasma profile of the compound of Formula A following intravitreal injection in adult male and female subjects with central involved diabetic macular edema. • To evaluate the pharmacodynamic effect of intravitreal injection of the compound of Formula A in adult male and female subjects with central involved diabetic macular edema.\nEach subject returned on Day 1, 7, 14, 28 and 56 for safety and ophthalmic assessment. Pharmacokinetic assessment was also taken. In addition, the subject was contacted by the Study Site on Day 3 (+1-1 day) by telephone to inquire about the subject's visual wellbeing and to ask about any adverse events.\nSingle 100 μL intravitreal injection of: • 1 μg-10 μg/mL of the compound of Formula A • 3 μg-30 μg/mL of the compound of Formula A • […] of the compound of Formula A"}, "[3]": {"test_system": "subjects with center involved diabetic macular edema", "experiment": "Study 1: pharmacodynamic effect (visual acuity, retinal thickness)", "settings": "Day 84, 10 μg dose"}}}
{"molecule": "CCOc1ccc(C[C@@H](NC(=O)c2ccccc2)C(=O)N[C@@H](Cc2ccccc2)C(=O)NCc2ccc(CN)cc2)cc1", "note": "[compound of Formula A, N—[(R)-1-[(S)-1-(4-Aminomethyl-benzylcarbamoyl)-2-phenyl-ethylcarbamoyl]-2-(4-ethoxy-phenyl)-ethyl]-benzamide]", "values": [{"measurement": "AEs that led to discontinuation", "setting": "[1]; 6 μg arm", "value": "one retinal neovascularization"}, {"measurement": "Severity of reported adverse events (AEs)", "setting": "[1]; majority of reported AEs, all arms", "value": "mild"}, {"measurement": "Subjects in whom the treatment was safe and well-tolerated", "setting": "[1]; monthly intravitreal injections, 3 μg or 6 μg", "value": "> 99", "unit": "%"}, {"measurement": "Time post dosing up to which plasma concentrations were quantifiable", "setting": "[2]; 3 μg/eye dose", "value": "up to 24 hours"}, {"measurement": "Time post dosing up to which plasma concentrations were quantifiable", "setting": "[2]; 10 μg/eye", "value": "up to 24 hours"}, {"measurement": "Time post injection up to which plasma concentrations were quantifiable", "setting": "[2]; intravitreal injection of 1 μg/eye", "value": "up to 4 hours"}, {"measurement": "Mean improvement in visual acuity", "setting": "[3]", "value": 5.5, "unit": "letters"}]}
